Reference: paper PMC3763632, “Radiosynthesis and Radiotracer Properties of a 7-(2-[^18F]Fluoroethoxy)-6-methoxypyrrolidinylquinazoline for Imaging of Phosphodiesterase 10A with PET” (Pharmaceuticals, 2012)

What was measured:
[1] = Chemical stability in vitro; format: physicochemical; settings: for native [18F]IV remaining intact: up to 1.5 h
Description: Furthermore, the chemical stability of [^18F]IV in vitro under physiological conditions was investigated. […] For formulation and storage, radioligand stability in acetonitrile (98%, 1 h, 80 °C) and in ethanol (98%, 1 h, 80 °C; ≥99%, 1.5 h, 40 °C) was proven.

[2] = Radioligand stability in vivo (metabolism in brain, plasma, urine); parameters: species or system CD-1 mice; settings: mice
Description: The metabolic fate of [^18F]IV was investigated in brain, plasma and urine samples of CD1-mice at 30 and 60 min p.i. Proteins were precipitated with acetonitrile and extraction efficiencies of 96.4% for brain homogenate, 90.2% for plasma and 89.4% for urine were obtained, indicating sufficient recovery rates. The supernatants of each material were analyzed by radio-TLC and analytical radio-HPLC, whereof two representative chromatograms are given in Figure 4.
A single lipophilic metabolite was detected representing only 4.2% of total radioactivity at 60 min p.i. Therefore a major impairment of the imaging properties of [^18F]IV in vivo should not be expected. The same radiometabolite was detected in plasma with 23.5% and 22.0% of the total radioactivity at 30 and 60 min p.i., while the parent radiotracer [^18F]IV accounted for 69.5% and 70.1%, respectively.
In urine the metabolic profile is distinctly different. While the non-metabolized [^18F]IV and the single plasma- and brain-related radiometabolite accounted for only ~1% of the total radioactivity in urine, further radiometabolites were detected. The main three of them represent 11%, 12% and 44% of the total radioactivity. In contrast to brain and plasma samples, in urine free [^18F]fluoride could be detected, although at a low level of only ~5% of total radioactivity.
After injection via the tail vein of ~150 MBq of [^18F]IV in […] isotonic solution, mice were sacrificed at 30 or 60 min p.i. (n = 2 per time). Urine and blood samples were obtained, and whole brains were isolated and homogenized in 50 mM TRIS-HCl, pH 7.4/4 °C, in a borosilicate glass cylinder by 10 strokes of a PTFE plunge at a speed of 1,000 rpm using a Potter S Homogenizer (B. Braun Melsungen AG, Germany). Plasma samples were obtained by centrifugation of blood at 2,000 g and 4 °C for 10 min. Extractions of brain homogenate, plasma and urine samples were done by treatment with ice-old acetonitrile (1:5 v/v; 2 min vortex mixing, Vortex-Genie 2, Scientific Industries Inc., NY, USA; 10 min incubation on ice) and centrifugation (6,000 rpm, 4 °C, 5 min; EBA 12R, Andreas Hettich GmbH & Co. KG, Tuttlingen, Germany). The supernatants were stored separately. Sediments of brain and plasma samples were re-suspended in 500 μL ice-cold acetonitrile and extraction was repeated. Supernatants of each specimen were combined and slowly evaporated at 70 °C under nitrogen stream. […]

PDE10A = test: In vivo blocking study (pre-injection of PDE10A inhibitor); parameters: species or system mice
Description: The observed slightly increase in the uptake of radioactivity in most organs might be caused by an increase in the free fraction of [^18F]IV in plasma or changes in physiological parameters such as blood flow due to high concentrations of the blocking compounds.
Specificity of brain and in particular striatal uptake of [^18F]IV was investigated in blocking studies by intraperitoneal injection of 10 mg/kg of I [31] […] (n = 3), dissolved in 200 µL saline at 10 min before the radiotracer. Mice were sacrificed at 60 min p.i., and the radioligand uptake was determined as described above. Data listed in table 2 are given as mean values ± standard deviation (SD).

[3] = blocking with 10 mg/kg I, 60 min p.i.
[4] = blocking with 10 mg/kg MP-10, 60 min p.i.

## COc1cc2c(N3CC[C@@H](Oc4cnc5ccccc5n4)C3)ncnc2cc1OCC[18F] [[^18F]IV, (R)-7-(2-[^18F]Fluoroethoxy)-6-methoxy-4-(3-(quinoxalin-2-yloxy)pyrrolidin-1-yl)quinazoline]
[1]; 0.01 M TRIS-HCl buffer (pH 7.4 at 21 °C), 40 °C
  native [18F]IV remaining intact: ≥ 99%
[1]; 0.9% sodium chloride solution (pH 7.2), 40 °C, radio-TLC
  native [18F]IV remaining intact: ≥ 99%
[1]; acetonitrile, 1 h, 80 °C
  radioligand stability: 98%
[1]; ethanol, 1 h, 80 °C
  radioligand stability: 98%
[1]; ethanol, 1.5 h, 40 °C
  radioligand stability: ≥ 99%
[1]; physiological phosphate-saline (pH 7.2), 40 °C
  native [18F]IV remaining intact: 97%
[2]; brain, 30 min p.i.
  parent [18F]IV, share of total radioactivity: 94.3%
[2]; brain, 60 min p.i.
  parent [18F]IV, share of total radioactivity: 93.1%
[2]; plasma, 30 min p.i.
  parent [18F]IV, share of total radioactivity: 69.5%
[2]; plasma, 60 min p.i.
  parent [18F]IV, share of total radioactivity: 70.1%
PDE10A; 10 mg/kg i.p. 10 min before radiotracer, 60 min p.i., p > 0.05
  change in accumulated radioactivity in PDE10A-expressing organs after pre-injection of MP-10 or compound I: no significant changes
PDE10A; [3]
  18F uptake, Adrenals: 51.1 ± 17.9 % ID/g
  18F uptake, Bladder: 2.20 ± 0.49 % ID/g
  18F uptake, Blood: 1.72 ± 0.16 % ID/g
  18F uptake, Brain: 1.13 ± 0.17 % ID/g
  18F uptake, Colon: 1.07 ± 0.22 % ID/g
  18F uptake, Femurs: 1.62 ± 0.72 % ID/g
  18F uptake, Femurs (fl.) (flushed): 0.81 ± 0.13 % ID/g
  18F uptake, Gonads: 3.30 ± 0.29 % ID/g
  18F uptake, Heart: 2.30 ± 0.22 % ID/g
  18F uptake, Intestine: 44.3 ± 9.58 % ID/g
  18F uptake, Kidneys: 4.01 ± 0.54 % ID/g
  18F uptake, Liver: 12.9 ± 1.08 % ID/g
  18F uptake, Lungs: 2.62 ± 0.44 % ID/g
  18F uptake, Muscles: 1.27 ± 0.25 % ID/g
  18F uptake, Pancreas: 2.25 ± 0.26 % ID/g
  18F uptake, Plasma: 2.70 ± 0.24 % ID/g
  18F uptake, Skin: 2.26 ± 0.82 % ID/g
  18F uptake, Spleen: 2.48 ± 0.68 % ID/g
  18F uptake, Stomach: 13.8 ± 1.65 % ID/g
  18F uptake, Striatum: 1.28 ± 0.27 % ID/g
  18F uptake, Thymus: 2.22 ± 0.08 % ID/g
  18F uptake, Urine: 18.0 ± 9.26 % ID/g
PDE10A; [4]
  18F uptake, Adrenals: 36.0 ± 9.51 % ID/g
  18F uptake, Bladder: 2.93 ± 0.51 % ID/g
  18F uptake, Blood: 1.85 ± 0.50 % ID/g
  18F uptake, Brain: 1.30 ± 0.20 % ID/g
  18F uptake, Colon: 1.78 ± 0.78 % ID/g
  18F uptake, Femurs: 1.73 ± 0.58 % ID/g
  18F uptake, Femurs (fl.) (flushed): 0.92 ± 0.23 % ID/g
  18F uptake, Gonads: 4.10 ± 1.41 % ID/g
  18F uptake, Heart: 2.89 ± 0.42 % ID/g
  18F uptake, Intestine: 14.8 ± 4.16 % ID/g
  18F uptake, Kidneys: 5.87 ± 1.56 % ID/g
  18F uptake, Liver: 17.7 ± 3.87 % ID/g
  18F uptake, Lungs: 2.95 ± 0.86 % ID/g
  18F uptake, Muscles: 1.29 ± 0.37 % ID/g
  18F uptake, Pancreas: 3.19 ± 0.91 % ID/g
  18F uptake, Plasma: 3.34 ± 1.00 % ID/g
  18F uptake, Skin: 2.43 ± 0.44 % ID/g
  18F uptake, Spleen: 3.00 ± 0.79 % ID/g
  18F uptake, Stomach: 14.6 ± 7.83 % ID/g
  18F uptake, Striatum: 1.38 ± 0.30 % ID/g
  18F uptake, Thymus: 2.55 ± 0.62 % ID/g
  18F uptake, Urine: 14.7 ± 7.17 % ID/g
